According to paper PMC9649612, “Molecular docking and biochemical validation of (-)-syringaresinol-4-O-β-D-apiofuranosyl-(1→2)-β-D-glucopyranoside binding to an allosteric site in monoamine transporters” (Frontiers in Pharmacology, 2022):

How the values were obtained:
[1] = target: T1, hSERT S559A (S2 site mutant) (Homo sapiens, UniProt P31645, S559A); test: ASP+ binding in digitonin-permeabilized HeLa cells expressing hSERT S559A; conditions: 10 μM ASP+, read-out: SAG IC50 for binding
T1 construct: expressed in transfected cells; host or cells: HeLa (ATCC CCL-2), transient, pcDNA3.1
Experimental: (§1) The mutants used for this study were constructed in the WT background carried by the expression plasmids for hSERT, hDAT, or hNET under the control of CMV promotor in pcDNA3.1 vector, respectively. All mutants were generated using the Mut Express II Fast Mutagenesis Kit (Vazyme) and confirmed by full-length DNA sequencing.
(§2) HeLa cells were cultured in Dulbecco’s Modified Eagle’s Medium supplemented with 10% fetal bovine serum, 100 units/ml penicillin, and 100 μg/ml streptomycin at 37°C in a humidified 5% CO2 incubator. Cells were plated in a 6-well culture plate and grown overnight. Cells at ∼70% confluence were transfected with hSERT, hDAT, or hNET cDNA in pcDNA3.1 by lipofectamine 2000. […] After grown for additional 12–16 h, the cells were assayed for APP^+ or ASP^+ fluorescence image acquisition.
(§3) The cells expressing WT or mutants of hSERT, hDAT, or hNET were wet mounted on polylysine coated glass slides in 12-well plates and applied for the indicated treatments. […] The extent of APP^+ accumulated in the cells was determined by confocal imaging analysis. ASP^+ binding to SERT in the cell membrane was measured with digitonin-permeabilized cells ([Li M. et al., 2022a]). […] After removing excess ASP^+ by rapid washing three times, ASP^+ binding was determined by confocal imaging analysis.
(§4) Images were analyzed using Zen Blue software. […]

[2] = target: T2, hSERT Q562N (S2 site mutant) (Homo sapiens, UniProt P31645, Q562N); test: ASP+ binding in digitonin-permeabilized HeLa cells expressing hSERT Q562N; conditions: 10 μM ASP+, read-out: SAG IC50 for binding
T2 construct: expressed in transfected cells; host or cells: HeLa (ATCC CCL-2), transient, pcDNA3.1
Experimental: as §1, §2, §3, §4

[3] = target: T3, hDAT D476N (S2 site mutant) (Homo sapiens, UniProt Q01959, D476N); test: APP+ transport in HeLa cells expressing hDAT mutant D476N; type: cell-based; conditions: intact HeLa cells, read-out: SAG IC50
T3 construct: expressed in transfected cells; host or cells: HeLa
T3 sequence (Q01959 whole entry D476N): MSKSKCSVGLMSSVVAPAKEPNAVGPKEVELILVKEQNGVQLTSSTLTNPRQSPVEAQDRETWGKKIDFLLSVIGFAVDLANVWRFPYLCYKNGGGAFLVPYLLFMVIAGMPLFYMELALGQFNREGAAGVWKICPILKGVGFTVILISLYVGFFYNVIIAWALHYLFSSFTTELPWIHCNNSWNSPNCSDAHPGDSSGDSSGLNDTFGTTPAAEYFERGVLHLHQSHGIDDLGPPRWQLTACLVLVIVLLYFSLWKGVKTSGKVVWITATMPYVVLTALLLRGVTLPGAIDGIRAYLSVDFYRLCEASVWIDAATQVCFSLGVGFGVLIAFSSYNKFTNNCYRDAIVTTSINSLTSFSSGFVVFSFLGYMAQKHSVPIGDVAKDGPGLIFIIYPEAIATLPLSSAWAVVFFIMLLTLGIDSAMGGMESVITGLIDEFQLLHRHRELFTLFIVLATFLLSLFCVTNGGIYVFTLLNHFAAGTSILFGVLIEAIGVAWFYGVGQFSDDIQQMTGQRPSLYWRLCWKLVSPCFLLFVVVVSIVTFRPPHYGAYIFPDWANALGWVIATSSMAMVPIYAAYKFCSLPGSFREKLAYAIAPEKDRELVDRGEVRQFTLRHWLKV
Experimental: as §1, §2, §3, §4

[4] = target: T4, hNET F317A (S2 site mutant) (Homo sapiens, UniProt P23975, F317A); test: APP+ transport in HeLa cells expressing hNET mutant F317A; type: cell-based
T4 construct: expressed in transfected cells; host or cells: HeLa
T4 sequence (P23975 whole entry F317A): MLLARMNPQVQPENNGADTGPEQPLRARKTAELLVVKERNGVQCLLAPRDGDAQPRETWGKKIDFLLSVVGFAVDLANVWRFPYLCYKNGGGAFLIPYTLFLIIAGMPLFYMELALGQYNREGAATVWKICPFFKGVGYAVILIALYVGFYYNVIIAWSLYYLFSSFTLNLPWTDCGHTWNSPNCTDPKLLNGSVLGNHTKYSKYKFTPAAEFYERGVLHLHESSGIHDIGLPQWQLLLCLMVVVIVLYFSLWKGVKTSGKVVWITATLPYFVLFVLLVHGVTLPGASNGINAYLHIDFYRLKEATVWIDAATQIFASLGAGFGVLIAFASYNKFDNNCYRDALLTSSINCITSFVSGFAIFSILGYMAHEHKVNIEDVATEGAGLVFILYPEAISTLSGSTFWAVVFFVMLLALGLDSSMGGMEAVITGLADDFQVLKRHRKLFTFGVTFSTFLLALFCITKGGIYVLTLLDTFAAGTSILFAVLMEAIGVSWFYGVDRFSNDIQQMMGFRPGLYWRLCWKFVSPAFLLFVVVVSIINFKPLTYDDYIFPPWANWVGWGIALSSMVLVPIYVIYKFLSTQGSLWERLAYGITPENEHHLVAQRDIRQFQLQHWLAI
Experimental: as §1, §2, §3, §4

[5] = target: T5, hNET T474Q (S2 site mutant) (Homo sapiens, UniProt P23975, T474Q); test: APP+ transport in HeLa cells expressing hNET mutant T474Q; type: cell-based
T5 construct: expressed in transfected cells; host or cells: HeLa
T5 sequence (P23975 whole entry T474Q): as the sequence (P23975 whole entry F317A) above, with A317F, T474Q counted along it
Experimental: as §1
(§5) HeLa cells were cultured in Dulbecco’s Modified Eagle’s Medium supplemented with 10% fetal bovine serum, 100 units/ml penicillin, and 100 μg/ml streptomycin at 37°C in a humidified 5% CO2 incubator. Cells were plated in a 6-well culture plate and grown overnight. Cells at ∼70% confluence were transfected with hSERT, hDAT, or hNET cDNA in pcDNA3.1 by lipofectamine 2000. Transfected cells were incubated for 24 h at 37°C with 5% CO2 and then transferred into a 12-well plate placed with polylysine coated slides. After grown for additional 12–16 h, the cells were assayed for APP^+ or ASP^+ fluorescence image acquisition.
The cells expressing WT or mutants of hSERT, hDAT, or hNET were wet mounted on polylysine coated glass slides in 12-well plates and applied for the indicated treatments. In brief, the cells were washed twice with 500 μl KRH buffer containing 20 mM HEPES, pH 7.4, 120 mM NaCl, 1.3 mM KCl, 2.2 mM CaCl2, 1.2 mM MgSO4, and 0.1% (w/v) glucose. […] Excess APP^+ was then removed by rapid washing three times with 500 μl KRH buffer. The extent of APP^+ accumulated in the cells was determined by confocal imaging analysis. ASP^+ binding to SERT in the cell membrane was measured with digitonin-permeabilized cells ([Li M. et al., 2022a]). […] After removing excess ASP^+ by rapid washing three times, ASP^+ binding was determined by confocal imaging analysis.
(§6) Images were analyzed using Zen Blue software.
Nonlinear regression fits of experimental and calculated data were performed with Origin (Origin Lab). The statistical analysis given was from multiple experiments. Data with error bars in the figures represent the mean ± SD for at least 10 measurements per condition in one experiment or the mean ± SEM from at least three experiments as indicated, respectively. […]

[6] = target: T6, hDAT V152F (S1 site mutant) (Homo sapiens, UniProt Q01959, V152F); test: APP+ transport in HeLa cells expressing hDAT mutant V152F; type: cell-based
T6 construct: expressed in transfected cells; host or cells: HeLa
T6 sequence (Q01959 whole entry V152F): as the sequence (Q01959 whole entry D476N) above, with V152F, N476D counted along it
Experimental: as §1, §2, §3, §4

[7] = target: T7, hSERT E493N (S2 site mutant) (Homo sapiens, UniProt P31645, E493N); test: APP+ transport in HeLa cells expressing hSERT mutant E493N; type: cell-based; conditions: 2 μM APP+ 5 min, intact HeLa cells, read-out: SAG IC50 for transport
T7 construct: expressed in transfected cells; host or cells: HeLa (ATCC CCL-2), transient, pcDNA3.1
Experimental: as §1, §2, §3, §4

[8] = target: T8, hSERT I327A (S2 site mutant) (Homo sapiens, UniProt P31645, I327A); test: ASP+ binding in digitonin-permeabilized HeLa cells expressing hSERT I327A; conditions: 10 μM ASP+, read-out: SAG IC50 for binding
T8 construct: expressed in transfected cells; host or cells: HeLa (ATCC CCL-2), transient, pcDNA3.1
Experimental: as §1, §2, §3, §4

[9] = target: T9, hSERT P560G (S2 site mutant) (Homo sapiens, UniProt P31645, P560G); test: ASP+ binding in digitonin-permeabilized HeLa cells expressing hSERT P560G; conditions: 10 μM ASP+, read-out: SAG IC50 for binding
T9 construct: expressed in transfected cells; host or cells: HeLa (ATCC CCL-2), transient, pcDNA3.1
Experimental: as §1, §2, §3, §4

[10] = target: T10, hDAT F76V (S1 site mutant) (Homo sapiens, UniProt Q01959, F76V); test: APP+ transport in HeLa cells expressing hDAT mutant F76V; type: cell-based
T10 construct: expressed in transfected cells; host or cells: HeLa
T10 sequence (Q01959 whole entry F76V): as the sequence (Q01959 whole entry D476N) above, with F76V, N476D counted along it
Experimental: as §1, §2, §3, §4

[11] = target: T9, hSERT P560G (S2 site mutant); test: APP+ transport in HeLa cells expressing hSERT mutant P560G; type: cell-based; conditions: 2 μM APP+ 5 min, intact HeLa cells, read-out: SAG IC50 for transport
Experimental: as §1, §2, §3, §4

[12] = target: T11, hNET W559A (S2 site mutant) (Homo sapiens, UniProt P23975, W559A); test: APP+ transport in HeLa cells expressing hNET mutant W559A; type: cell-based; conditions: intact HeLa cells, read-out: SAG IC50
T11 construct: expressed in transfected cells; host or cells: HeLa
T11 sequence (P23975 whole entry W559A): as the sequence (P23975 whole entry F317A) above, with A317F, W559A counted along it
Experimental: as §1, §2, §3, §4

[13] = target: T12, hDAT Q317A (S2 site mutant) (Homo sapiens, UniProt Q01959, Q317A); test: APP+ transport in HeLa cells expressing hDAT mutant Q317A; type: cell-based; conditions: intact HeLa cells, read-out: SAG IC50
T12 construct: expressed in transfected cells; host or cells: HeLa
T12 sequence (Q01959 whole entry Q317A): as the sequence (Q01959 whole entry D476N) above, with Q317A, N476D counted along it
Experimental: as §1, §2, §3, §4

[14] = target: T13, hDAT W562A (S2 site mutant) (Homo sapiens, UniProt Q01959, W562A); test: APP+ transport in HeLa cells expressing hDAT mutant W562A; type: cell-based
T13 construct: expressed in transfected cells; host or cells: HeLa
T13 sequence (Q01959 whole entry W562A): as the sequence (Q01959 whole entry D476N) above, with N476D, W562A counted along it
Experimental: as §1, §2, §3, §4

[15] = target: T14, WT-hNET (Homo sapiens, UniProt P23975); test: APP+ transport (uptake) in HeLa cells expressing WT-hNET; type: cell-based; conditions: WT hNET; APP+ transport, intact HeLa cells; read-out: SAG IC50
T14 construct: expressed in transfected cells; host or cells: HeLa
T14 sequence (P23975 whole entry): as the sequence (P23975 whole entry F317A) above, with A317F counted along it
Experimental: as §5, §3, §6
Nonlinear regression fits of experimental and calculated data were performed with Origin (Origin Lab). […]

[16] = target: T15, hSERT T497A (S2 site mutant) (Homo sapiens, UniProt P31645, T497A); test: ASP+ binding in digitonin-permeabilized HeLa cells expressing hSERT T497A; conditions: 10 μM ASP+, read-out: SAG IC50 for binding
T15 construct: expressed in transfected cells; host or cells: HeLa (ATCC CCL-2), transient, pcDNA3.1
Experimental: as §1, §2, §3, §4

[17] = target: T16, hSERT Y579A (S2 site mutant) (Homo sapiens, UniProt P31645, Y579A); test: APP+ transport in HeLa cells expressing hSERT mutant Y579A; type: cell-based; conditions: 2 μM APP+ 5 min, intact HeLa cells, read-out: SAG IC50 for transport
T16 construct: expressed in transfected cells; host or cells: HeLa (ATCC CCL-2), transient, pcDNA3.1
Experimental: as §1, §2, §3, §4

[18] = target: T17, hSERT G498T (S2 site mutant) (Homo sapiens, UniProt P31645, G498T); test: APP+ transport in HeLa cells expressing hSERT mutant G498T; type: cell-based; conditions: 2 μM APP+ 5 min, intact HeLa cells, read-out: SAG IC50 for transport
T17 construct: expressed in transfected cells; host or cells: HeLa (ATCC CCL-2), transient, pcDNA3.1
Experimental: as §1, §2, §3, §4

[19] = target: T18, hSERT Q111N (S2 site mutant) (Homo sapiens, UniProt P31645, Q111N); test: APP+ transport in HeLa cells expressing hSERT mutant Q111N; type: cell-based; conditions: 2 μM APP+ 5 min, intact HeLa cells, read-out: SAG IC50 for transport
T18 construct: expressed in transfected cells; host or cells: HeLa (ATCC CCL-2), transient, pcDNA3.1
Experimental: as §1, §2, §3, §4

[20] = target: T19, hSERT E494Q (S2 site mutant) (Homo sapiens, UniProt P31645, E494Q); test: APP+ transport in HeLa cells expressing hSERT mutant E494Q; type: cell-based; conditions: 2 μM APP+ 5 min, intact HeLa cells, read-out: SAG IC50 for transport
T19 construct: expressed in transfected cells; host or cells: HeLa (ATCC CCL-2), transient, pcDNA3.1
Experimental: as §1, §2, §3, §4

## (-)-Syringaresinol-4-O-β-D-apiofuranosyl-(1→2)-β-D-glucopyranoside [SAG]
[1]
  IC50: 126 ± 8.1 µM
[2]
  IC50: 450 ± 23 µM
[3]
  IC50: 93.8 ± 3.9 µM
[4]; hNET F317A vs WT-hNET
  Change in SAG inhibition potency compared to WT: little change
[4]; hNET F317A, intact HeLa cells, read-out: SAG IC50
  IC50: 36.7 ± 7.6 µM
[5]; hNET T474Q vs WT-hNET
  Change in SAG inhibition potency compared to WT: little change
  Decrease in SAG inhibition potency compared with WT: less than 3 folds
[5]; hNET T474Q, intact HeLa cells, read-out: SAG IC50
  IC50: 49.3 ± 7.9 µM
[6]; hDAT S1 residue Val152 replaced
  Effect of mutation on SAG inhibition potency: little effect
[6]; hDAT V152F (S1), intact HeLa cells, read-out: SAG IC50
  IC50: 26.6 ± 2.8 µM
[7]
  IC50: 53.2 ± 6.6 µM
[8]
  IC50: 48.3 ± 4.6 µM
[9]
  IC50: 324 ± 28 µM
[10]; hDAT F76V (S1), intact HeLa cells, read-out: SAG IC50
  IC50: 18.2 ± 0.8 µM
[10]; hDAT S1 residue Phe76 replaced
  Effect of mutation on SAG inhibition potency: little effect
[11]
  IC50: 243 ± 10 µM
[12]
  IC50: > 1000 µM
[13]
  IC50: 51.3 ± 3.1 µM
[14]; hDAT W562A vs WT-hDAT
  Increase in SAG IC50 compared with WT: more than 30 fold
[14]; hDAT W562A, intact HeLa cells, read-out: SAG IC50
  IC50: > 1000 µM
[15]
  IC50: 40.1 ± 2.8 µM
[16]
  IC50: 152 ± 12 µM
[17]
  IC50: 127 ± 3 µM
[18]
  IC50: 69.2 ± 3.3 µM
[19]
  IC50: 19.1 ± 2.2 µM
[20]
  IC50: 153 ± 2 µM
